Data taken from US20240384250A1, “FIBROBLAST GROWTH FACTOR 23 MODULATING COMPOUNDS” (THE UAB RESEARCH FOUNDATION, priority 2021, published 2024).

What was measured:
FGF23/FGFR4 binding = biological target: T1, FGF23/FGFR4 binding (Homo sapiens, UniProt P22455+Q9GZV9, R179Q); test: Surface plasmon resonance, FGF23 binding to surface FGFR4 with heparin or sKL in solution; conditions: heparin or sKL in solution
T1 construct: Fc-FGFR4 protein (human ectodomain) was immobilized; purchased R&D Systems human FGF23 2604FG025/CF; human FGFR4 685FR050
T1 sequence (Q9GZV9 25-251 R179Q): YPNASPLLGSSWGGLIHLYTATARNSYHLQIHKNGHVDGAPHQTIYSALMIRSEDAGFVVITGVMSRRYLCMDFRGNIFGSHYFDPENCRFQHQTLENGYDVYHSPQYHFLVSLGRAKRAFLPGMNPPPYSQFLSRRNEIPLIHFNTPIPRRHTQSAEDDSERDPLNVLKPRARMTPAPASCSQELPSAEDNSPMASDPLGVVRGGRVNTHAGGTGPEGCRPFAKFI
T1 sequence (P22455 22-369 limits assumed): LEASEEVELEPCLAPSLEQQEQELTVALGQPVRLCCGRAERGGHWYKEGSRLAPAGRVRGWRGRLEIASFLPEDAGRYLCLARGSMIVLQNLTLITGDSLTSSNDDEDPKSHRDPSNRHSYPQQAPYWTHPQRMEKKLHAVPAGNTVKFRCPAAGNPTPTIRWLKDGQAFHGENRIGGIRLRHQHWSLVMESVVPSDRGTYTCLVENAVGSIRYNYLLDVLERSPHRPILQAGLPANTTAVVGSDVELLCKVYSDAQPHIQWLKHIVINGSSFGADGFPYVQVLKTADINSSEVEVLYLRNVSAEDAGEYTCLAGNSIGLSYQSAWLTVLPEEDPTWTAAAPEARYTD
Experimental: For the direct quantitative analysis of label-free molecular interactions in real time, surface plasmon resonance studies were conducted using BIAcore T200 and T200 evaluation software (28975001, Cytiva). Sensor SA (BR100398) and CMS chips (BR100399) were from Cytiva. For the preparation of heparin chips, heparin (2 mg) and amine-PEG3-Biotin (2 mg, 21347, Pierce) were dissolved in 200 μl of H2O and 10 mg of NaCNBH3 was added. The reaction mixture was heated at 70° C. for 24 hours; an additional 10 mg of NaCNBH3 was added; and the reaction was heated at 70° C. for another 24 hours. After cooling to room temperature, the mixture was desalted with the spin column (3000 MWCO). Biotinylated heparin was collected, freeze dried, and used for chip preparation. Biotinylated heparin was immobilized to streptavidin chips according to the manufacturer's protocol. In brief, 20 μl of biotinylated heparin solution (0.1 mg/ml) in HBS-P running buffer (0.01 M N-2-hydroxyethylpiperazine-N′-2-ethanesulfonic acid, 0.15 M NaCl, 0.005% surfactant P20 [pH7.4]; BR100368, Cytiva) was injected over flow cell 2 of the streptavidin chip at a flow rate of 10 μl/min. The successful immobilization of heparin was confirmed by the observation of an approximately 200-resonance unit increase in the sensor chip. […] The response was monitored as a function of time (sensorgram) at 25° C.

male BALB/c mice = test: Serial FGF23 and heparin injections in mice, echocardiography and heart weight; assay type: in vivo, mouse; conditions: heparin 125 USP/kg and/or FGF23 40 μg/kg
Experimental: FGF23 injections were administered following a similar protocol established previously. 13,72,73 Briefly, 12-week-old male BALB/c mice (The Jackson Laboratory) underwent tail vein injections. The day before the experiment, mice underwent echocardiographic analysis, as described below. Mice were anesthetized in 2.5% isoflurane and placed on a heat pad. Each group consisted of 5 mice, and different groups were injected with isotonic saline, heparin, FGF23, or FGF23 and heparin combined. Per injection, 40 μg/kg of FGF23 and 125, 62.5, or 12.5 USP/kg of heparin dissolved in 200 μl of isotonic saline were used, with 8 hours were used between injections for a total of 5 consecutive days. All injections were performed via the lateral tail vein. On the morning of the sixth day, 16 hours after the final tail vein injection, animals underwent echocardiographic analysis and were killed. Middle sections of hearts were cut along the short axis and stored overnight in 4% phosphate-buffered formaldehyde solution. Sections were sent to IDEXX Laboratories for embedding, hematoxylin and eosin (H&E) staining, and sectioning. Sections for wheat germ agglutinin (WGA) labeling were not stained by IDEXX Laboratories.
Echocardiographic analysis was performed on day 6 of the experiment for FGF23-injected mice by using the Vevo 770 or Vevo 3100 imaging system (FUJIFILM VisualSonics). Animals were anesthetized with 1.5% isoflurane, and normal body temperature was maintained using a rectal probe for temperature monitoring. For analysis, both B- and M-mode images were obtained in the short- and long-axis views. Correct positioning of the transducer was ensured using B-mode imaging in the long-axis view before switching to the short-axis view. Image analysis was performed using Vevo 770 Workstation and Vevo LAB software (FUJIFILM VisualSonics).

increase in FGF23/FGFR4 binding affinity (FGF23/FGFR4 binding): approximately 3 fold
Substance: heparin [reference compound]
Endocardial % EF (male BALB/c mice): 56.51 ± 4.08%
Endocardial % FAC (male BALB/c mice): 47.34 ± 2.41%
Endocardial Area; s (male BALB/c mice): 5.47 ± 0.44 mm²
Endocardial major; d (male BALB/c mice): 7.23 ± 0.11 mm
Epicardial Area: s (male BALB/c mice): 18.2 ± 0.63 mm²
Epicardial Area; d (male BALB/c mice): 22.5 ± 0.78 mm²
Heart rate (male BALB/c mice): 448.40 ± 4.52 BPM
LV Mass; d (male BALB/c mice): 111.90 ± 5.23 mg
T; d (male BALB/c mice): 0.88 ± 0.03 mm
